{"source": "paper PMC8355244", "about": "“A fragment-based approach identifies an allosteric pocket that impacts malate dehydrogenase activity” (Communications Biology, 2021)", "key": {"[1]": {"experiment": "Precipitation / turbidity of compound in assay buffer (600 nm)", "assay_type": "physicochemical", "settings": "activity screening buffer, 500 µM", "method": "1.3 µL of derivatives of 4-phenylthiazol-2-amine in 100% DMSO were mixed with 237.7 µL of a mastermix of WT PfMDH previously incubated with NAD+. The final compound concentration used in this screening was 500 µM in the presence of 0.5% (v/v) DMSO. The microplate was sealed with silver foil for 1-h incubation at 25–35 °C. Finally, reactions in both the samples and control wells were started upon the addition of 13.0 µL of 5 mM malate). At the end of the experiments, the reaction of the plate was spectrophotometrically assayed at 600 nm in order to identify turbidity due to the low solubility of the compound. All measurements were performed in duplicate."}, "PfMDH": {"target": "T1, PfMDH (Plasmodium falciparum, UniProt Q6VVP7)", "T1 construct": "The full-length WT PfMDH gene was cloned into pETM-13; made in house; host or cells: E. coli Rosetta 2 (DE3) pLysS", "T1 sequence (Q6VVP7 entry or part of it)": "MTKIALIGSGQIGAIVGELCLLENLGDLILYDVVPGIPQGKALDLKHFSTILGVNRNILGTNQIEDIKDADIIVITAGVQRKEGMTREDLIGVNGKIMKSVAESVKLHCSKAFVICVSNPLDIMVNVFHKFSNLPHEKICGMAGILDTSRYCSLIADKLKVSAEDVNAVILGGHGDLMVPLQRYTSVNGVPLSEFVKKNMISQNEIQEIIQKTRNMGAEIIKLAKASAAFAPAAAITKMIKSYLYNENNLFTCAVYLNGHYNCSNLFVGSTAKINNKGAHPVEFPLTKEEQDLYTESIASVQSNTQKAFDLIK", "experiment": "Thermal shift assay (TSA)", "assay_type": "binding", "method": "The TSA experiment was conducted in a BioRad CSX 96 (Biorad). Each reaction consisted of 1 mM of compound (100 mM stock in 100% (v/v) DMSO) and 10 μM PfMDH in 100 mM Na–phosphate buffer pH 7.4, 400 mM NaCl, and 10× Sypro Orange (Invitrogen) for a total volume of 100 μl. Control experiments were performed with 1% (v/v) DMSO. Inflection points were determined using BioRad CFX96™ control software. Generally, a temperature increase of over 1 °C is interpreted as a result of the stabilization of the protein-ligand interaction. On the contrary, a negative shift is considered a destabilization caused by the fragment."}}, "data": [{"substance": "4-(3-(trifluoromethyl)phenyl)thiazol-2-amine [compound 8a]", "values": [{"measurement": "precipitation of compound in the buffer", "setting": "[1]", "value": "precipitation of compound was observed"}, {"measurement": "ΔTm", "setting": "PfMDH; 1 mM compound vs DMSO control", "value": "−10", "unit": "°C"}, {"measurement": "Tm", "setting": "PfMDH; 1 mM compound, 10 μM PfMDH, DMSO control Tm 58", "value": "48.0 ± 1.0", "unit": "°C"}]}]}
